Data from paper PMC6753678, “Fueling Open Innovation for Malaria Transmission-Blocking Drugs: Hundreds of Molecules Targeting Early Parasite Mosquito Stages” (Frontiers in Microbiology, 2019).
Like-named read-outs stand apart in the source and are kept apart here.

Assays:
[1] = tested on: 3D7-strain P. falciparum asexual parasites; assay: P. falciparum asexual growth inhibition assay (Pf GIA); type: cell-based, Plasmodium falciparum; conditions: dose response confirmation; read-out: Pf asexual growth inhibition assays IC50
In short: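 0.25% parasitemia, 2% Hct, RPMI/HEPES/hypoxanthine/5% Albumax; compound dose response, 72 h, 37°C, 5% CO2, 5% O2, 90% N2. Freeze-thaw, then LDH assay, A650. % inhibition vs chloroquine (50 μM)/DMSO, mean of 3 independent runs.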

[2] = tested on: HepG2 cells; assay: HepG2 cytotoxicity assay; conditions: for Pb ODA (this manuscript) HepG2 cytoxicity: HepG2 cytotoxicity listed with the Pb ODA data set (this manuscript); for IC50: read-out: HepG2 cytotoxicity assay IC50, dose response confirmation
In short: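 Percent inhibition derived from fluorescent viability readout, normalised to DMSO (negative) and 50 μM doxorubicin (positive). Compound incubation lasted 48 h at 37°C, 5% CO2, with 2,500 HepG2 cells/well in MEM plus 10% FBS and 1% NEAA.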

[3] = tested on: P. berghei ookinete development; conditions: for % inhibition, Replicate A / % inhibition, Replicate B: primary screen at 1 μM
[4] = read-out: Pb ODA (this manuscript) IC50, P. berghei ookinete development assay, this manuscript
[5] = read-out: Pb Ookinete development assay IC50, dose response confirmation
[6] = unified HepG2 value across the three screens
[7] = read-out: Pb ODA IC50, this manuscript
[8] = HepG2 values of the three screens unified

Structure (SMILES) | IC50 [1] | Pb ODA (this manuscript) HepG2 cytoxicity [2] | IC50 [2] | Is compound selective in assay? Pb ODA active? [3] | % inhibition, Replicate A [3] | % inhibition, Replicate B [3] | IC50 [3, 4] | IC50 [3, 5] | Unified cytotox [2, 6] | Is compound selective in assay? Pb ODA active? ([3]; 1: YES, 0: NO) | IC50 [3, 7] | HepG2 cytoxicity (Pb ODA, this manuscript) [2] | Unified cytotox [2, 8]
CC1CN(Cc2ccc(-c3ccc(-c4nc5ccccc5[nH]4)cc3)cc2)CC(C)O1.O=C(O)C(F)(F)F (stereo not shown) [TCMDC-133828] | 1.14 µM | 30.20 µM | 30.2 µM | 1 (key: 1: YES; 0: NO) | 97.54% | 72.23% | 0.87 µM | 0.868 µM |  |  |  |  | 
CC1CN(Cc2ccc(-c3ccc(-c4nc5cc(F)ccc5[nH]4)cc3)cc2)CC(C)O1.O=C(O)C(F)(F)F (stereo not shown) [TCMDC-133831] | 1.22 µM | 24.55 µM | 24.6 µM | 1 (key: 1: YES; 0: NO) | 81.24% | 52.13% |  | 1.18 µM |  |  |  |  | 
N#Cc1ccc(CN2CCC(Oc3ccc(NC(=O)c4cccs4)cc3Cl)CC2)cc1.O=C(O)C(F)(F)F [TCMDC-133955] | 0.6 µM | 36.31 µM | 36.3 µM | 0 (key: 1: YES; 0: NO) | 56.20% | 46.08% | 4.36 µM | 4.36 µM |  |  |  |  | 
CC(C)CCN1CCC(Oc2ccc(NC(=O)c3cccs3)cc2Cl)CC1.O=C(O)C(F)(F)F [TCMDC-133974] | 0.66 µM | 21.38 µM | 21.4 µM | 1 (key: 1: YES; 0: NO) | 38.26% | 57.89% | 1.45 µM | 1.45 µM |  |  |  |  | 
CNC(=O)c1cc(F)c(F)cc1Nc1nc(Nc2cccc(CS(C)(=O)=O)c2)ncc1Cl.O=CO [TCMDC-134060] | 1.57 µM | 100.00 µM | 100 µM | 1 (key: 1: YES; 0: NO) | 53.04% | 41.11% | 2.15 µM | 2.15 µM |  |  |  |  | 
CN1CCN(c2ccc(Nc3ncc(C#N)c(Nc4ccccc4C(N)=O)n3)cc2)CC1.Cl [TCMDC-134116] | 0.028 µM | 2.43 µM | 2.43 µM | 1 (key: 1: YES; 0: NO) | 134.36% | 120.59% | 0.0316 µM | 0.032 µM |  |  |  |  | 
COc1ccc(Nc2ncc(C#N)c(Nc3ccccc3C(N)=O)n2)cc1N1CCN(C)CC1.Cl [TCMDC-134117] | 0.063 µM | 8.32 µM | 8.32 µM | 1 (key: 1: YES; 0: NO) | 92.85% | 98.42% | 0.0255 µM | 0.026 µM |  |  |  |  | 
CNC(=O)c1ccccc1Nc1nc(Nc2ccc(N3CCOCC3)cc2)ncc1Cl.Cl [TCMDC-134144] | 1.99 µM | 3.63 µM | 3.63 µM | 0 (key: 1: YES; 0: NO) | 67.63% | 105.55% | 0.39 µM | 0.387 µM |  |  |  |  | 
COc1ccc(Nc2ncc(OC)c(Nc3ccccc3C(N)=O)n2)cc1N1CCN(C)CC1.O=CO [TCMDC-134149] | 0.846 µM | 13.49 µM | 13.5 µM | 1 (key: 1: YES; 0: NO) | 85.24% | 71.46% |  | 0.27 µM |  |  |  |  | 
NCC(NC(=O)c1ccc(-c2c[nH]c3ncccc23)s1)c1ccccc1.O=CO (stereo not shown) [TCMDC-134154] | 0.558 µM |  | 16.2 µM |  | 101.79% | 81.42% |  | 0.964 µM | 16.22 µM | 1 (1: YES) | 0.96 µM |  | 
COc1ccc(Nc2ncc(Cl)c(Nc3cccnc3C(N)=O)n2)cc1N1CCN(C)CC1.Cl [TCMDC-134163] | 0.169 µM | 11.22 µM | 11.2 µM | 1 (key: 1: YES; 0: NO) | 91.07% | 92.91% |  | 0.38 µM |  |  |  |  | 
CN1CCN(c2ccc(Nc3ncc(Cl)c(Nc4cccnc4C(N)=O)n3)cc2)CC1.Cl [TCMDC-134164] | 0.084 µM | 4.62 µM | 4.62 µM | 1 (key: 1: YES; 0: NO) | 96.98% | 90.60% | 0.23 µM | 0.226 µM |  |  |  |  | 
CS(=O)(=O)Cc1ccc(Nc2ncc(Cl)c(Nc3cccnc3C(N)=O)n2)cc1.Cl [TCMDC-134165] | 0.969 µM | 100.00 µM | 100 µM | 1 (key: 1: YES; 0: NO) | 41.15% | 108.98% | 0.7 µM | 0.699 µM |  |  |  |  | 
CS(=O)(=O)Cc1cccc(Nc2ncc(Cl)c(Nc3cccnc3C(N)=O)n2)c1.Cl [TCMDC-134166] | 0.273 µM | 4.79 µM | 4.79 µM | 0 (key: 1: YES; 0: NO) | 102.49% | 90.53% | 1.21 µM | 1.21 µM |  |  |  |  | 
NC(=O)c1ccccc1Nc1nc(Nc2cc[nH]n2)ncc1Cl [TCMDC-134169] | 2.31 µM | 13.18 µM | 13.2 µM | 1 (key: 1: YES; 0: NO) | 78.38% | 61.96% | 0.51 µM | 0.513 µM |  |  |  |  | 
COc1cc(NC2=NS(=O)(=O)c3cc(Cl)ccc3N2C)cc(OC)c1OC.O=C(O)C(F)(F)F [TCMDC-134208] | 0.146 µM |  | 100 µM |  | 117.05% | 98.94% |  | 1.35 µM | 100.00 µM | 1 (1: YES) | 1.35 µM |  | 
CC(C#N)Cc1ccc(-c2cnc(N)c3cc(-c4ccnc(N)n4)ccc23)cc1 (stereo not shown) [TCMDC-134547] | 1.37 µM |  | 5.75 µM |  | 69.67% | 52.16% |  | 0.849 µM | 5.75 µM | 0 (0: NO) | 0.85 µM |  | 
COc1ccc2nccc(N3CCC(NCCNCc4ccc5c(n4)NC(=O)CO5)C3)c2n1.Cl (stereo not shown) [TCMDC-134548] | 0.0014 µM |  | 42.7 µM |  | 4.96% | 51.82% |  | 1.62 µM | 42.66 µM | 1 (1: YES) | 1.63 µM |  | 
COCCN(C)c1ccc(C(=O)Nc2ccccc2)cc1NS(=O)(=O)Cc1ccccc1.O=C(O)C(F)(F)F [TCMDC-134575] | 0.606 µM |  | 100 µM |  | 51.04% | 48.31% |  | 1.4 µM | 100.00 µM | 1 (1: YES) |  |  | 
COc1ccc2ncc(C)c(CCN3CCC(NCc4ccc5c(n4)NC(=O)CS5)CC3)c2c1.Cl [TCMDC-134648] | 0.872 µM |  | 34.7 µM |  | 66.89% | 104.06% |  | 2.55 µM |  | 1 (1: YES) | 2.55 µM | 34.67 µM | 34.67 µM
COc1ccc2ncc(Cl)c(NCC3(O)CCC(NCc4ccc5c(n4)NC(=O)CS5)CC3)c2n1.Cl (stereo not shown) [TCMDC-134671] | 1.21 µM |  | 12.6 µM |  | 92.69% | 100.49% |  | 0.813 µM |  | 1 (1: YES) | 0.81 µM | 12.59 µM | 12.59 µM
Cc1[nH]c(C)c(-c2ccc(C#Cc3ccc(F)cc3F)cc2)c(=O)c1Br [TCMDC-134692] | 0.016 µM | 100.00 µM | 100 µM | 1 (key: 1: YES; 0: NO) | 89.67% | 88.19% | 0.4 µM | 0.399 µM |  |  |  |  | 
COc1ccc2nccc([C@@H](O)CN3C4CCC3CC(NCc3ccc5c(n3)NC(=O)CS5)C4)c2n1.Cl (stereo partly shown) [TCMDC-134697] | 1.06 µM |  | 38.9 µM |  | 46.01% | 53.20% |  | 4 µM |  | 0 (0: NO) |  | 38.90 µM | 38.90 µM
COc1cc(OC)cc(-c2nn(-c3ccc([N+](=O)[O-])cc3C#N)c(=S)n2Cc2ccco2)c1 [TCMDC-134715] | 0.744 µM |  | 100 µM |  | 26.66% | 59.14% |  | 1.6 µM | 100.00 µM | 1 (1: YES) | 1.6 µM |  | 
